Data on 15 molecules can be found in ChEMBL document CHEMBL3046637, “Synthesis of new series of pyrazolo[4,3-d]pyrimidin-7-ones and pyrido[2,3-d]pyrimidin-4-ones for their bacterial and cyclin-dependent kinases (CDKs) inhibitory activities” (Med Chem Res, 2011).

For test [1], the target named is Glycogen synthase kinase-3 alpha (Homo sapiens, UniProt P49840). Description: Inhibition of GSK3alpha (unknown origin) using GS-l peptide as substrate and [gamma-33P]-ATP after 10 min.
In test [2] the target is Glycogen synthase kinase-3 beta (Homo sapiens, UniProt P49841). As to the kind of experiment: Inhibition of GSK3beta (unknown origin) using GS-l peptide as substrate and [gamma-33P]-ATP after 10 min.
Test [3] has as its target Dual specificity tyrosine-phosphorylation-regulated kinase 1A (Homo sapiens, UniProt Q13627). Description: Inhibition of DYRK1A (unknown origin) using [gamma-33P]-ATP after 10 min.
Test [4] deals with Cyclin-dependent kinase 5/CDK5 activator 1 (Homo sapiens, UniProt Q00535). As to the kind of experiment: Inhibition of CDK5/p25 (unknown origin) using histone H1 as substrate and [gamma-33P]-ATP after 10 min. In kind it is protein-complex assay.
Test [5] concerns the target T1, Cyclin-dependent kinase 1/cyclin B1 (Homo sapiens, UniProt P06493). As to the kind of experiment: Inhibition of CDK1/cyclin B (unknown origin) using histone H1 as substrate and [gamma-33P]-ATP after 10 min. In kind it is protein-complex assay.
Test [6] relates to Escherichia coli. Description: Antimicrobial activity against Escherichia coli NCTC 10418 by agar cup diffusion technique. The format is functional.
Test [7] has as its system Pseudomonas aeruginosa. As to the kind of experiment: Antimicrobial activity against Pseudomonas aeruginosa ATCC 9027 by agar cup diffusion technique. The format is functional.
The subject of test [8] is Candida albicans. As to the kind of experiment: Antimicrobial activity against Candida albicans ATCC 10231 by agar cup diffusion technique. The format is functional.
Test [9] deals with Candida albicans. As to the kind of experiment: Antimicrobial activity against Candida albicans ATCC 10231 by two-fold serial dilution technique. In kind it is functional.
Test [10] deals with Staphylococcus aureus. As to the kind of experiment: Antimicrobial activity against Staphylococcus aureus ATCC 6538 by agar cup diffusion technique. In kind it is functional.
Test [11] has as its system Staphylococcus aureus. Description: Antimicrobial activity against Staphylococcus aureus ATCC 6538 by two-fold serial dilution technique. The format is functional.
In test [12] the test system is Pseudomonas aeruginosa. As to the kind of experiment: Antimicrobial activity against Pseudomonas aeruginosa ATCC 9027 by two-fold serial dilution technique. The format is functional.
Test [13] addresses T1, Cyclin-dependent kinase 1/cyclin B1. Description: Inhibition of CDK1/cyclin B (unknown origin). The format is protein-complex assay.
In test [14] the test system is Escherichia coli. As to the kind of experiment: Antimicrobial activity against Escherichia coli NCTC 10418 by two-fold serial dilution technique. In kind it is functional.

Structures are written as SMILES. In brackets after ≈: the same amount, converted by molar mass. Some results are limits rather than exact numbers.

What is called IC50 is the midpoint of a concentration-inhibition curve. Broadly, the MIC is the least concentration at which growth counts as inhibited.

Chain of Cyclin-dependent kinase 5/CDK5 activator 1 (Q00535 whole entry): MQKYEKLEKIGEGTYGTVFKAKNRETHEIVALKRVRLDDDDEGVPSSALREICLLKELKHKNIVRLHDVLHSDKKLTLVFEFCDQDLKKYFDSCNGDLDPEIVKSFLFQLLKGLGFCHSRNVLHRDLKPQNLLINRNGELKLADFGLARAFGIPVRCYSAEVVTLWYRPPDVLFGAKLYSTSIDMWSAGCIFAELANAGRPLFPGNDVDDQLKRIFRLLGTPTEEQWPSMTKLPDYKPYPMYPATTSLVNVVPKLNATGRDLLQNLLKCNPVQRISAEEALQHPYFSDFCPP
Chain of Cyclin-dependent kinase 5/CDK5 activator 1 (Q15078 whole entry, further chain): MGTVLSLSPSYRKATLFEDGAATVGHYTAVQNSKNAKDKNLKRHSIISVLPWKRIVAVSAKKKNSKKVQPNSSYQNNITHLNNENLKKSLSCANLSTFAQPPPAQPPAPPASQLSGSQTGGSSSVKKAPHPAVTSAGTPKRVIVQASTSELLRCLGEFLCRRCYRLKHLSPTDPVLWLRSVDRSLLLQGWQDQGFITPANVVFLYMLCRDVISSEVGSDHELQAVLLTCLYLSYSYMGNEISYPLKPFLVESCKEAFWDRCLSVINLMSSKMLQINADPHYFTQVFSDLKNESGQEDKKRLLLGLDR
Chain of Glycogen synthase kinase-3 beta (P49841 whole entry): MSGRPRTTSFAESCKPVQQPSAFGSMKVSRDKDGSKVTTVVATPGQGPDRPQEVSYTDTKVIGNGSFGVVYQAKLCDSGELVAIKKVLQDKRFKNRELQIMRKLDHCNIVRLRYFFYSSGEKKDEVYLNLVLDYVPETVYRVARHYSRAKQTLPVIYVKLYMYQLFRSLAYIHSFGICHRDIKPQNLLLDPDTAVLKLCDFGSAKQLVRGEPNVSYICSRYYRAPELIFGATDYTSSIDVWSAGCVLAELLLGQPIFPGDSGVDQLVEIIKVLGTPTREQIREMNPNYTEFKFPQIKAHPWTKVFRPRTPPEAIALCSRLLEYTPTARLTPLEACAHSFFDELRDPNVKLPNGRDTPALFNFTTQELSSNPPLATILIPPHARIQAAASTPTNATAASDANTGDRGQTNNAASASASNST
T1 sequence (P06493 whole entry, the tested form may be a part): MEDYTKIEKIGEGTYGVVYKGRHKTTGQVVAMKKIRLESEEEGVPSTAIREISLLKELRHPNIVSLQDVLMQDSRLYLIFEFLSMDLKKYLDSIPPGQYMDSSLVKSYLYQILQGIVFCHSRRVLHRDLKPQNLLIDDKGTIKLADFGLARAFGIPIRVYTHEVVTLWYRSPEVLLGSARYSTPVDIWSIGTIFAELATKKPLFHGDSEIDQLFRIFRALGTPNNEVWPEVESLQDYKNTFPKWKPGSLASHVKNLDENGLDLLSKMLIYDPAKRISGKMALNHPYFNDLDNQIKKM
T1 sequence (P14635 whole entry, further chain, the tested form may be a part): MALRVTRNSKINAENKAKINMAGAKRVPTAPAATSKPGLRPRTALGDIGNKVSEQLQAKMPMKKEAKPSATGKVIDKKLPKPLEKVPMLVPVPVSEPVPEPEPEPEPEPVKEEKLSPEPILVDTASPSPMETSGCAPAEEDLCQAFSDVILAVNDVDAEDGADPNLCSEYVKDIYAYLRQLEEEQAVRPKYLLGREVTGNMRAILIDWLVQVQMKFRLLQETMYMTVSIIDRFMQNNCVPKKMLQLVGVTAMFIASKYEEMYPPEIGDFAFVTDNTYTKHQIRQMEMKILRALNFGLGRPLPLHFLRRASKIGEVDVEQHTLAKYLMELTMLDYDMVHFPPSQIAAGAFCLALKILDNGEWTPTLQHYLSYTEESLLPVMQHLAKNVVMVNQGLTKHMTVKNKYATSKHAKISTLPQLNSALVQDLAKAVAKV
Chain of Glycogen synthase kinase-3 alpha (P49840 whole entry): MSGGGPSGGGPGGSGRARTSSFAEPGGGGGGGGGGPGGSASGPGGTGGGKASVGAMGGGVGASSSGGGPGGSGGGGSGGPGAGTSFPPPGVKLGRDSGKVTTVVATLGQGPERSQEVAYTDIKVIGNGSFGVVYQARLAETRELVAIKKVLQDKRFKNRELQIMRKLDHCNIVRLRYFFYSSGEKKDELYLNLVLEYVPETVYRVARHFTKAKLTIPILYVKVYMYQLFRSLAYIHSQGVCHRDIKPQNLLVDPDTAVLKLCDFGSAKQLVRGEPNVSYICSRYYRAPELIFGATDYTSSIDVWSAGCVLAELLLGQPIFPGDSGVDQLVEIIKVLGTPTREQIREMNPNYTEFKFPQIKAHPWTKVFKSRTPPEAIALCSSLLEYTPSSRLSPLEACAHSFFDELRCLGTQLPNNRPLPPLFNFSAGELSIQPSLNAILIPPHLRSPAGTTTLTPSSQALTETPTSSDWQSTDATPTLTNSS

For the molecule `O=c1[nH]cnc2c(-c3ccc(Br)cc3)n[nH]c12`, the IC50 in test [1], in [2], in test [3], in test [4] and in test [5] was above 10 µM each time. Besides, the “diameter of the inhibition zone (DIZ)” value in the test with Escherichia coli [6] is given as 15.5 mm; in the test with Pseudomonas aeruginosa [7], 17.5 mm; with Candida albicans [8] it was 28 mm. In the test with Candida albicans [9], this molecule yielded an MBC of 250 µg/mL (≈ 859 µM). Further, inhibition of growth in the test on Candida albicans [9] (MIC) required 250 µg/mL (≈ 859 µM).

As for `CCOc1ccc(S(=O)(=O)N2CCOCC2)cc1-c1nc2ncccc2c(=O)[nH]1`, the concentration for half-maximal inhibition (IC50) in test [1], in test [2], in [3], in test [4] and in test [5] was above 10 µM throughout. Also, the “diameter of the inhibition zone (DIZ)” value in the test with Staphylococcus aureus [10] is 10 mm; in the test with Escherichia coli [6], 17 mm; with Pseudomonas aeruginosa [7], 15 mm; in the test with Candida albicans [8], 17 mm.

Consider `CCOc1ccc(S(=O)(=O)N2CCN(c3ccccc3)CC2)cc1-c1nc2ncccc2c(=O)[nH]1`, for which the IC50 in test [1], in test [2], in test [3], in test [4] and in test [5] was above 10 µM throughout. Further, the “diameter of the inhibition zone (DIZ)” value in the test on Staphylococcus aureus [10] was 12 mm; with Escherichia coli [6] it was 16.5 mm; in the test with Pseudomonas aeruginosa [7], 15.5 mm; in the test on Candida albicans [8] it was 25 mm. This molecule also displayed an MBC in the test on Candida albicans [9] of 250 µg/mL (≈ 509 µM). Besides, it took 62.5 µg/mL (≈ 127 µM) to inhibit growth with Candida albicans [9] (MIC).

In the case of `CCOC(=O)C(=O)/C(=N\Nc1ccccc1)C(=O)c1ccccc1`, the IC50 in [1], in test [2], in test [3], in [4] and in [5] was above 10 µM each time. In addition, the “diameter of the inhibition zone (DIZ)” value in the test with Escherichia coli [6], in the test on Pseudomonas aeruginosa [7] and in the test on Candida albicans [8] was 16 mm throughout.

In the case of `CCOC(=O)C(=O)/C(=N\Nc1ccccc1)C(=O)c1ccc(Cl)cc1`, the 50% inhibitory concentration (IC50) in test [1], in test [2], in test [3], in [4] and in test [5] was above 10 µM in each case. In addition, the “diameter of the inhibition zone (DIZ)” value stood at 16 mm in the test on Escherichia coli [6], 17 mm in the test on Pseudomonas aeruginosa [7] and 16 mm with Candida albicans [8].

Take `O=C1NN=C(c2ccccc2)/C(=N/Nc2ccccc2)C1=O`: the IC50 in test [1], in test [2], in test [3], in [4] and in test [5] was above 10 µM throughout. The “diameter of the inhibition zone (DIZ)” value in the test with Staphylococcus aureus [10] turned out to be 30 mm; in the test on Escherichia coli [6], 17 mm; with Pseudomonas aeruginosa [7], 24 mm; in the test with Candida albicans [8], 17.5 mm. Further, the MBC with Staphylococcus aureus [11] was determined as 62.5 µg/mL (≈ 214 µM); against Pseudomonas aeruginosa [12], 125 µg/mL (≈ 428 µM). The figures for the MIC in the test on Staphylococcus aureus [11] and in the test on Pseudomonas aeruginosa [12] were 62.5 µg/mL (≈ 214 µM) and 125 µg/mL (≈ 428 µM), respectively.

As to `O=C1NN=C(c2ccc(Br)cc2)/C(=N/Nc2ccccc2)C1=O`, the IC50 in test [1], in test [2], in test [3], in [4] and in test [5] was above 10 µM in each case. Also, the “diameter of the inhibition zone (DIZ)” value stood at 20 mm with Staphylococcus aureus [10], 16 mm in the test with Escherichia coli [6], 17.5 mm in the test with Pseudomonas aeruginosa [7] and 16.5 mm with Candida albicans [8]. The MBC with Staphylococcus aureus [11] stood at 250 µg/mL (≈ 674 µM). The same molecule gave an MIC in the test with Staphylococcus aureus [11] of 250 µg/mL (≈ 674 µM).

For `CCOC(=O)c1[nH]nc(-c2ccc(F)cc2)c1/N=N/c1ccccc1`, the IC50 in test [1], in test [2], in [3], in [4] and in [5] was above 10 µM throughout. The “diameter of the inhibition zone (DIZ)” value in the test with Staphylococcus aureus [10] amounted to 20 mm; in the test on Escherichia coli [6], 16 mm; in the test with Pseudomonas aeruginosa [7], 17 mm; with Candida albicans [8], 16 mm. In addition, in the test on Staphylococcus aureus [11], the MBC came out at 250 µg/mL (≈ 739 µM). The same molecule displayed an MIC against Staphylococcus aureus [11] of 250 µg/mL (≈ 739 µM).

`CCOC(=O)c1[nH]nc(-c2ccc(Cl)cc2)c1/N=N/c1ccccc1`: the 50% inhibitory concentration (IC50) in test [1], in [2], in [3], in test [4] and in [5] was above 10 µM each time. The “diameter of the inhibition zone (DIZ)” value in the test with Staphylococcus aureus [10] came out at 21 mm; in the test with Escherichia coli [6], 16.5 mm; in the test with Pseudomonas aeruginosa [7], 16 mm; in the test on Candida albicans [8], 16 mm. For the same molecule, in the test with Staphylococcus aureus [11], the MBC stood at 250 µg/mL (≈ 705 µM). In addition, the minimal inhibitory concentration (MIC) against Staphylococcus aureus [11] came out at 125 µg/mL (≈ 352 µM).

In the case of `CCOC(=O)c1[nH]nc(-c2ccc(Cl)cc2)c1N`, the IC50 in test [1], in test [2], in [3], in [4] and in test [5] was above 10 µM throughout. For the same molecule, the “diameter of the inhibition zone (DIZ)” value in the test with Staphylococcus aureus [10] is listed as 10 mm; in the test on Escherichia coli [6], 17 mm; in the test with Pseudomonas aeruginosa [7], 23 mm; in the test with Candida albicans [8], 17 mm. Further, the MBC in the test on Pseudomonas aeruginosa [12] was above 500 µg/mL. In the test with Pseudomonas aeruginosa [12], this molecule gave an MIC of 125 µg/mL (≈ 470 µM).

In the case of `CCOC(=O)c1[nH]nc(-c2ccc(Br)cc2)c1N`, the IC50 in test [1], in test [2], in test [3], in [4] and in test [5] was above 10 µM each time. For the same molecule, the “diameter of the inhibition zone (DIZ)” value with Staphylococcus aureus [10] is reported as 14 mm; with Escherichia coli [6] it was 15.5 mm; in the test on Pseudomonas aeruginosa [7], 17 mm; with Candida albicans [8], 16 mm.

Take `O=c1[nH]cnc2c(-c3ccccc3)n[nH]c12`: the half-maximal inhibitory concentration (IC50) in test [1], in [2], in [3], in test [4] and in test [5] was above 10 µM throughout. Moreover, the “diameter of the inhibition zone (DIZ)” value in the test with Staphylococcus aureus [10] was determined as 11 mm; with Escherichia coli [6], 16 mm; in the test on Pseudomonas aeruginosa [7], 17.5 mm; in the test with Candida albicans [8] it was 17 mm.

In test [13], `COc1ccc(CNc2ncnc3c(C(C)C)n[nH]c23)cc1O` came in with an IC50 of 1.1 µM. That is a single-digit micromolar value.

For the molecule `CC1(C)S[C@@H]2[C@H](NC(=O)[C@H](N)c3ccccc3)C(=O)N2[C@H]1C(=O)O` [AMPICILLIN], the entries for the “diameter of the inhibition zone (DIZ)” value in the test with Staphylococcus aureus [10], in the test on Escherichia coli [6] and with Pseudomonas aeruginosa [7] were 40 mm, 26 mm and 18 mm, respectively. The MBC against Staphylococcus aureus [11] was determined as 15.6 µg/mL (≈ 44.7 µM); against Escherichia coli [14], 31.2 µg/mL (≈ 89.4 µM); in the test on Pseudomonas aeruginosa [12], 500 µg/mL (≈ 1430 µM). Further, the MIC with Staphylococcus aureus [11] stood at 3.9 µg/mL (≈ 11.2 µM); against Pseudomonas aeruginosa [12] it was 250 µg/mL (≈ 715 µM).

For `Clc1ccccc1C(c1ccccc1)(c1ccccc1)n1ccnc1` [CLOTRIMAZOLE], the “diameter of the inhibition zone (DIZ)” value in the test with Candida albicans [8] was 28 mm. In the test with Candida albicans [9], the MBC came to 15.6 µg/mL (≈ 45.3 µM) and the MIC was found to be 7.81 µg/mL (≈ 22.6 µM).
